Data on 36 compounds can be found in PubChem BioAssay (NCI).

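Values below derive from 48-hour exposures of cells grown in 96-well plates, with endpoints linearly interpolated between the two concentrations bracketing the appropriate inhibition level. GI50 = concentration required for 50% inhibition of growth. The concentration for full growth arrest is given as TGI.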

Some test systems named below: DMS 114 small cell lung; XF 498 CNS; M19-MEL melanoma; SNB-78 CNS; DLD-1 colon; KM20L2 colon; MDA-N; HOP-18 NSCLC; RXF-631 renal; P388 leukemia; P388/ADR leukemia; SN12K1 renal.
Holding throughout (assay): NCI tumour cell line growth inhibition, 48 h

`CC(C)(C)CC(C)(C)c1cc2c(O)c(c1)Cc1cc(C(C)(C)CC(C)(C)C)cc(c1O)Cc1cc(C(C)(C)CC(C)(C)C)cc(c1O)Cc1cc(C(C)(C)CC(C)(C)C)cc(c1O)Cc1cc(C(C)(C)CC(C)(C)C)cc(c1O)C2`: the TGI in the assay with DMS 114 small cell lung, in the assay with XF 498 CNS, in the assay on M19-MEL melanoma, with SNB-78 CNS, with DLD-1 colon and with KM20L2 colon was more than 100 µM each time.
In turn, `NC[C@H]1Nc2ccccc2[C@@H](O)C1O` (stereo partly drawn) gave a TGI in the assay with MDA-N of more than 100 µM.
`CC(C)[O-].CC(C)[O-].O=C1C=C([O-])C(=O)c2ccccc21.O=C1C=C([O-])C(=O)c2ccccc21.[Ti+4]`: the GI50 with XF 498 CNS is more than 100 µM; with M19-MEL melanoma it was 4.42 µM; in the assay with HOP-18 NSCLC it was more than 86.7 µM; in the assay with DLD-1 colon, more than 100 µM; in the assay with KM20L2 colon, 44.1 µM. The TGI in the assay on XF 498 CNS, in the assay on M19-MEL melanoma, with HOP-18 NSCLC, with DLD-1 colon and with KM20L2 colon was more than 100 µM throughout.
With `CC1=C(C(=O)Nc2cc(=O)n(C)c(=O)n2C)C(c2cccc([N+](=O)[O-])c2)C(C(=O)Nc2cc(=O)n(C)c(=O)n2C)=C(C)N1`, the TGI with DMS 114 small cell lung, with M19-MEL melanoma, in the assay with SNB-78 CNS, in the assay with DLD-1 colon and with KM20L2 colon was more than 100 µM each time.
In turn, `Cc1cc(=O)oc2c(C)c(O)ccc12` yielded a TGI in the assay with MDA-N of more than 100 µM.
Turning to `CN1CC(=O)N(C)c2ncn(Cc3ccccc3)c2C1=O`, the TGI was more than 100 µM with DMS 114 small cell lung; 96.4 µM in the assay with XF 498 CNS; more than 100 µM in the assay with M19-MEL melanoma; more than 100 µM in the assay with HOP-18 NSCLC; more than 100 µM with RXF-631 renal; more than 100 µM in the assay on SNB-78 CNS. Also, the TGI in the assay on DLD-1 colon is more than 100 µM.
For `COc1cc(OC)c(SSCCCCS(=O)O)c(OC)c1`, the TGI is 39 µM in the assay on DMS 114 small cell lung; 27.6 µM with XF 498 CNS; 22.9 µM in the assay with M19-MEL melanoma; 45.8 µM with HOP-18 NSCLC; 29.4 µM in the assay with SNB-78 CNS; 41.1 µM with DLD-1 colon. In addition, the TGI in the assay with KM20L2 colon was 37.9 µM.
With `COc1ccc(-c2cc(=O)c3ccccc3o2)cc1N`, the TGI in the assay on DMS 114 small cell lung was more than 100 µM; in the assay on XF 498 CNS, 91.1 µM; in the assay on M19-MEL melanoma, more than 100 µM; with HOP-18 NSCLC it was more than 100 µM; in the assay with RXF-631 renal it was more than 100 µM; with SNB-78 CNS, more than 100 µM. In the assay with KM20L2 colon, this compound showed a TGI of more than 100 µM.
For `NC(=O)CCC(Nc1c2ccccc2nc2ccccc12)C(=O)O` (stereo not drawn), the TGI with M19-MEL melanoma, in the assay with RXF-631 renal, in the assay with DLD-1 colon and in the assay with KM20L2 colon was more than 100 µM throughout.
With `C[C@]12CCC(=O)C(O)=C1CC[C@@H]1C2CC[C@]2(C)NC(=O)CCC12` (stereo partly drawn), the TGI with DMS 114 small cell lung, with XF 498 CNS, in the assay on M19-MEL melanoma, in the assay on HOP-18 NSCLC, with RXF-631 renal and in the assay with SNB-78 CNS was more than 100 µM in each case. This compound also returned a TGI in the assay with KM20L2 colon of more than 100 µM.
`O=c1ccs[nH]1`: in the assay with MDA-N, the TGI came out at 60.2 µM.
Turning to `CCN(CC)CCCNC(=O)C1COc2cc(-c3cc(=O)c4ccccc4o3)ccc2O1` (stereo not drawn), the TGI in the assay on DMS 114 small cell lung was 50.9 µM; in the assay with M19-MEL melanoma, 76.4 µM; in the assay on HOP-18 NSCLC it was more than 100 µM; in the assay with RXF-631 renal, more than 100 µM; in the assay on SNB-78 CNS it was more than 100 µM; in the assay on DLD-1 colon, more than 100 µM. The TGI in the assay on KM20L2 colon is more than 100 µM.
Take `COc1ccc(NC(=O)CC/C(CC(=O)C(C)(C)C)=N\NC(=O)C(=O)NN)cc1`: the TGI in the assay on DMS 114 small cell lung, in the assay on M19-MEL melanoma, with HOP-18 NSCLC, with RXF-631 renal, with SNB-78 CNS and in the assay on DLD-1 colon was more than 100 µM in each case. This compound displayed a TGI with KM20L2 colon of more than 100 µM.
Turning to `O=C(CCc1nnc2s/c(=C\c3ccc(Cl)c(Cl)c3)c(=O)n12)Nc1ccc(Cl)c(Cl)c1`, the TGI with DMS 114 small cell lung, with XF 498 CNS, with M19-MEL melanoma, in the assay with HOP-18 NSCLC and with KM20L2 colon was more than 100 µM throughout.
Take `O=C1c2ccccc2-c2oc(=O)c3ccccc3c21`: the TGI in the assay on MDA-N is more than 100 µM.
For `O=C(c1ccccc1)c1c(-c2ccccc2)sc2nc3ccccc3nc12`, the TGI with DMS 114 small cell lung, in the assay with XF 498 CNS, in the assay on M19-MEL melanoma, in the assay on SNB-78 CNS and with KM20L2 colon was more than 100 µM in each case.
For `CC(=O)c1cccc(C)c1C(=O)O`, the TGI in the assay on DMS 114 small cell lung, in the assay on M19-MEL melanoma, in the assay with HOP-18 NSCLC, in the assay on SNB-78 CNS, with DLD-1 colon and in the assay with KM20L2 colon was more than 100 µM throughout.
Consider `CNC/C(Cl)=N/S(=O)(=O)c1ccc(C)cc1`, for which the TGI in the assay with MDA-N was 29.5 µM.
Consider `C#CCOCn1cnc2c(Sc3c([N+](=O)[O-])ncn3C)ncnc21`, for which the TGI with DMS 114 small cell lung, in the assay on XF 498 CNS, in the assay on M19-MEL melanoma, with RXF-631 renal, with DLD-1 colon and with KM20L2 colon was more than 100 µM throughout.
With `COC(=O)C1=C(O)c2cc(-c3ccccc3)c(-c3ccccc3)c(C#N)c2NC(=O)C1`, the TGI with DMS 114 small cell lung is more than 100 µM; in the assay with XF 498 CNS, more than 100 µM; with M19-MEL melanoma, more than 100 µM; in the assay with RXF-631 renal, 41 µM; in the assay with SNB-78 CNS it was more than 100 µM; in the assay with DLD-1 colon, more than 100 µM. The compound also showed a TGI with KM20L2 colon of more than 100 µM.
On to `CCOc1ccc(N=Cc2ccc3cc(C)ccc3n2)cc1`, for which the TGI with DMS 114 small cell lung, with XF 498 CNS, in the assay on M19-MEL melanoma, with HOP-18 NSCLC, with RXF-631 renal and with SNB-78 CNS was more than 100 µM in each case. For the same compound, the TGI with DLD-1 colon and in the assay with KM20L2 colon was more than 100 µM in each case.
In the assay with MDA-N, `C=C1C(C2(C)C(OC(C)=O)CC(=O)OC(C)(COC(C)=O)C2CC(=O)OC)C(OC=O)C(OC(=O)C(O)C(C)CC)C2(C)C(c3ccoc3)CC(=O)C12O` (stereo not drawn) registered a TGI of more than 100 µM.
For the compound `CC(=O)CC(N)=O`, the TGI in the assay with DMS 114 small cell lung, in the assay on XF 498 CNS, with M19-MEL melanoma, in the assay on HOP-18 NSCLC, in the assay on RXF-631 renal and in the assay with SNB-78 CNS was more than 100 µM each time. The TGI in the assay with DLD-1 colon and with KM20L2 colon was more than 100 µM throughout.
As for `O=C(O)Cc1cc(=O)[nH]c2c1/C(=N/O)CCC2`, the TGI in the assay with XF 498 CNS, with HOP-18 NSCLC and in the assay on DLD-1 colon was more than 100 µM in each case.
As for `CCOC(=O)Cc1ccc2c(c1O)C(=O)c1c(ccc(CC(=O)OCC)c1O)C2=O`, the TGI with DMS 114 small cell lung, with XF 498 CNS, in the assay on M19-MEL melanoma, in the assay with HOP-18 NSCLC, with SNB-78 CNS and in the assay on DLD-1 colon was more than 100 µM each time. Also, the TGI in the assay on KM20L2 colon was more than 100 µM.
Regarding `COc1ccc2c3c([nH]c2c1[N+](=O)[O-])C(C)N(Cc1ccc([N+](=O)[O-])cc1)CC3` (stereo not drawn), the TGI in the assay on SNB-78 CNS is more than 100 µM; with KM20L2 colon, 45 µM.
`O=C1O[C@H](c2ccccc2)[C@@H]2CC3(CCN12)OCCO3`: the TGI with XF 498 CNS, in the assay with RXF-631 renal and with KM20L2 colon was more than 100 µM each time.
With `C[C@]12CC[C@H](OC3OC(CO)C(O)C(O)C3O)C[C@H]1CC[C@@H]1[C@@H]2CC[C@]2(C)[C@@H](C3=CCOC3=O)CC[C@]12O` (stereo partly drawn), the TGI was more than 100 µM in the assay with MDA-N; 20.9 µM with P388 leukemia; 50 µM in the assay on DMS 114 small cell lung; 11.2 µM with XF 498 CNS; 37.9 µM in the assay with M19-MEL melanoma; 50 µM in the assay on P388/ADR leukemia. Further, the TGI was 41.5 µM with SN12K1 renal, 50 µM in the assay with SNB-78 CNS, more than 50 µM in the assay on DLD-1 colon and 50 µM with KM20L2 colon.
As to `CC1=C[C@]2(O)C(=O)[C@H](C)C[C@H]3[C@@H](CC[C@@](C)(O)/C=C\2C1=O)C3(C)C`, the TGI was more than 53.9 µM with DMS 114 small cell lung; 32.8 µM in the assay with XF 498 CNS; 33.4 µM with M19-MEL melanoma; 98.9 µM with HOP-18 NSCLC; more than 74.3 µM in the assay on RXF-631 renal; 82.5 µM in the assay with SNB-78 CNS. Besides, the figures for the TGI in the assay with DLD-1 colon and in the assay on KM20L2 colon were 34.9 µM and 19.5 µM, respectively.
For the compound `O=C1O/C(=C\c2ccccc2)N(c2ccccc2)C1=O`, the TGI with MDA-N is more than 100 µM.
As for `O=C1C=CC(=O)C12CCc1ccccc12`, the TGI was more than 100 µM in the assay with DMS 114 small cell lung; more than 100 µM in the assay on XF 498 CNS; more than 100 µM in the assay with M19-MEL melanoma; 97.4 µM with HOP-18 NSCLC; more than 100 µM in the assay with RXF-631 renal; more than 100 µM in the assay on SNB-78 CNS. Moreover, the TGI in the assay with DLD-1 colon and in the assay with KM20L2 colon was more than 100 µM throughout.
In the case of `CN(C)CCNC(=O)c1cccc2nc3cc(Cl)ccc3nc12`, the TGI is 6.69 µM with DMS 114 small cell lung; 3.89 µM in the assay with M19-MEL melanoma; more than 63.2 µM in the assay with HOP-18 NSCLC; 10.5 µM in the assay with SNB-78 CNS; 20.3 µM in the assay with DLD-1 colon; 9.08 µM in the assay on KM20L2 colon.
Regarding `Cn1nc(-c2ccccc2)c(C(=O)/C=C/c2ccc(Cl)cc2)c(N2CCCCC2)c1=O`, the TGI was determined as 4.37 µM in the assay with DMS 114 small cell lung; 3.91 µM in the assay with XF 498 CNS; 5.07 µM in the assay with M19-MEL melanoma; 4.94 µM in the assay with HOP-18 NSCLC; 9.79 µM in the assay on RXF-631 renal; 7.08 µM in the assay on DLD-1 colon. The TGI with KM20L2 colon stood at 6.46 µM.
For the compound `CC(=O)OC1CCn2nnc(CO)c21` (stereo not drawn), the TGI with DMS 114 small cell lung, in the assay with XF 498 CNS, with M19-MEL melanoma, in the assay on HOP-18 NSCLC, with SNB-78 CNS and in the assay on DLD-1 colon was more than 100 µM throughout. The TGI in the assay on KM20L2 colon was more than 100 µM.
With `C=C1C(=O)OC2C1CCC(C)C1C=CC(=O)C12C` (stereo not drawn), the TGI in the assay on MDA-N came to 3.88 µM; with XF 498 CNS it was 13.4 µM; with M19-MEL melanoma, 14.4 µM; with HOP-18 NSCLC, 20.7 µM; in the assay with SNB-78 CNS, 23.3 µM; in the assay on DLD-1 colon it was 4.19 µM. In addition, in the assay with KM20L2 colon, the TGI amounted to 14.6 µM.
In the assay on MDA-N, `O=C(O)CCCSc1ccccc1` registered a TGI of more than 100 µM.
